{"source": "patent US20230284994A1", "about": "“PET-CT IMAGING METHODS, CONTRAST AGENTS AND PHARMACEUTICAL COMPOSITIONS FOR USE IN SAID IMAGING METHODS” (ADIPOSS SÁRL, priority 2020, published 2023)", "key": {"[1]": {"test_system": "tumour metastases", "test": "18FDG PET-CT scan for metastases in syngeneic B16F10 melanoma mouse model, necropsy as standard of truth", "format": "in vivo, C57B1/6 mice", "conditions": "six mice, 24 metastases by necropsy; scan without (18FDG only) or with oral PET-CT contrast agent", "protocol": "Syngeneic mouse melanoma model (with tumor metastases dissemination to the lungs) was induced by intravenous injection of B16F10 murine melanoma cancer cells in C57B1/6 mice. 19 days after cells injection, the animals were administered with ^18FDG and a PET-CT scan was performed on each animal. One day later, the PET-CT contrast agent was administered via oral route to the same animals. Then, a second ^18FDG PET-CT scan was performed. The animals were then euthanized and necropsy was performed on each animal. Assessment of the PET-CT scans for co-localization of positive contrast enhancement of ^18FDG and PET-CT contrast agent allowed discriminating metastases from brown adipose tissue (FIGS. 2a and 3a). The ^18FDG signals present in BAT, that could be interpreted as false positives (metastases), were correctly attributed to BAT, improving the specificity and positive predictive value of the PET-CT scan for tumour metastases. This was confirmed by necropsy (FIGS. 2b, c and 3b, c). In total, based on necropsy (standard of truth), the six mice presented 24 metastases (four per mouse on average). […] Without the PET-CT contrast agent, the positive predictive value PPV of the ^18FDG PET-CT scan for metastases was 85% (FIG. 4). By using the PET-CT contrast agent, the PPV was 100%. The CT contrast agent thus improves the PPV of the ^18FDG PET-CT scan by 15%."}, "[2]": {"test_system": "brown adipose tissue", "test": "18FDG PET-CT scan for brown adipose tissue in syngeneic B16F10 melanoma mouse model, confirmed by necropsy", "format": "in vivo, C57B1/6 mice", "conditions": "12 scans (six with, six without contrast agent); based on 18FDG uptake or on uptake of PET-CT contrast agent", "protocol": "Syngeneic mouse melanoma model (with tumor metastases dissemination to the lungs) was induced by intravenous injection of B16F10 murine melanoma cancer cells in C57B1/6 mice. 19 days after cells injection, the animals were administered with ^18FDG and a PET-CT scan was performed on each animal. One day later, the PET-CT contrast agent was administered via oral route to the same animals. Then, a second ^18FDG PET-CT scan was performed. In total, 12 ^18FDG PET-CT scans were performed (six with and six without the PET-CT contrast agent). The animals were then euthanized and necropsy was performed. Assessment of the PET-CT scans for absence of ^18FDG uptake but presence of contrast enhancement due to the PET-CT contrast agent allowed easy and robust detection of brown adipose tissue, increasing the sensitivity and positive predictive value of the PET-CT scan or BAT. In total, ^18FDG uptake in BAT was present in nine out of 12 PET-CT scans. However, all mice had BAT. Based on ^18FDG uptake, the sensitivity of the PET-CT scan for BAT was 75% (FIG. 5). Based on the uptake of the PET-CT contrast agent, the sensitivity for BAT was 100%. Using the PET-CT contrast agent, the sensitivity of the PET-CT scan for BAT in mice was thus improved by 25%."}}}
{"smiles": "O=C[C@H]([18F])[C@@H](O)[C@H](O)[C@H](O)CO", "note": "[^18FDG, 2-[fluorine-18]fluoro-2-deoxy-D-glucose]", "values": [{"measurement": "positive predictive value PPV of the 18FDG PET-CT scan for metastases", "setting": "[1]", "value": 85, "unit": "%"}, {"measurement": "sensitivity of the 18FDG PET-CT scan for BAT", "setting": "[2]", "value": 75, "unit": "%"}]}
